In patent US12396459B2, “Synergistically effective herbicide composition comprising pyridate and at least one defined 4-HPPD inhibitor” (BELCHIM CROP PROTECTION NV, priority 2018, dated 2025):

Columns and labels:
Type in all cases: in vivo
[1] = tested on: Polygonum aviculare; assay: Field trial post-emergence in maize: POLAV
Method: (§1) Herbicidal activity of herbicide compositions according to the first aspect of the present invention with regard to different types of unwanted vegetation was determined during trials performed on test fields (field trials). Individual compositions comprising pyridate and individual compositions comprising a defined 4-HPPD inhibitor are compared with a herbicide composition according to the invention comprising both pyridate and a defined 4-HPPD inhibitor. The expected activity of the combination of the active compounds pyridate and a defined 4-HPPD inhibitor is calculated according to above mentioned calculation method by Colby, in order to evaluate a synergistic effect between pyridate and a defined 4-HPPD inhibitor.
(§2) Herbicidal activity was determined by applying herbicide compositions on emerged unwanted vegetation on fields where maize was cultivated. Pyridate and a defined 4-HPPD inhibitor were applied as a tank mixture by mixing these active compounds prior to use in a spray tank. The corresponding mixture was in the form of a spray liquor. Besides, spray liquors of individual compositions comprising pyridate and of individual compositions comprising a defined 4-HPPD inhibitor were used. Test plants of unwanted vegetation with a growth stage corresponding to BBCH 10-18 (according to the extended BBCH-scale) were sprayed with the active compound preparations such that particular desired amounts of active compounds are applied per unit area. Spray liquor was diluted with water to arrive at an application volume of 50 to 450 L/ha. At a specified number of days after application (DAA), the degree of damage to the unwanted vegetation is rated in % of plants of unwanted vegetation that were killed, which was assessed by visually controlling the plants.
(§3) Example 1 concerns a herbicide composition comprising a combination of pyridate and mesotrione, which was applied post-emergence on unwanted vegetation on a field where maize was cultivated, according to the test conditions mentioned above.

[2] = tested on: Echinochloa crus-galli; assay: Examples 6-8 herbicidal effect: ECHCG; details: 7 DAA
[3] = tested on: Datura stramonium; assay: Field trial post-emergence in maize: DATST; details: 7-14 DAA; # = 2; g a.c./ha: PYR 300, MES 100, PYR + MES 300 + 90
Method: as §1
(§4) Herbicidal activity was determined by applying herbicide compositions on emerged unwanted vegetation on fields where maize was cultivated. Pyridate and a defined 4-HPPD inhibitor were applied as a tank mixture by mixing these active compounds prior to use in a spray tank. The corresponding mixture was in the form of a spray liquor. […] At a specified number of days after application (DAA), the degree of damage to the unwanted vegetation is rated in % of plants of unwanted vegetation that were killed, which was assessed by visually controlling the plants.

[4] = tested on: Geranium dissectum; assay: Examples 6-8 herbicidal effect: GERDI; details: 7 DAA
[5] = tested on: Veronica persica; assay: Field trial post-emergence in maize: VERPE; details: for herbicidal effect (h.e.): g a.c./ha: PYR 300, MES 100, PYR + MES 300 + 90
Method: as §1, §2

[6] = tested on: Matricaria chamomilla; assay: Field trial post-emergence in maize: MATCH
Method: as §1, §2, §3

[7] = tested on: Brassica rapa Canola cultivars; assay: Field trial post-emergence in maize: BRSRC; details: 13-14 DAA; # = 1; g a.c./ha: PYR 450, MES 144, PYR + MES 450 + 144
Method: as §1, §2

[8] = tested on: Lamium purpureum; assay: Field trial post-emergence in maize: LAMPU
Method: as §1, §2, §3

[9] = tested on: Sonchus oleraceus; assay: Field trial post-emergence in maize: SONOL; details: # = 1, g a.c./ha: PYR 300, MES 100, PYR + MES 300 + 90
Method: as §1, §2

[10] = tested on: Abutilon theophrasti; assay: Field trial post-emergence in maize: ABUTH; details: 31-48 DAA; # = 2; g a.c./ha: PYR 300, MES 100, PYR + MES 300 + 90
Method: as §1, §4

[11] = tested on: Tripleurospermum inodorum; assay: Field trial post-emergence in maize: MATIN; details: for herbicidal effect (h.e.): # = 1, g a.c./ha: PYR 300, MES 100, PYR + MES 300 + 90
Method: as §1, §2

[12] = tested on: Setaria viridis; assay: Field trial post-emergence in maize: SETVI
Method: as §1, §2, §3

[13] = tested on: Veronica persica; assay: Examples 6-8 herbicidal effect: VERPE; details: 7 DAA
[14] = tested on: Portulaca oleracea; assay: Field trial post-emergence in maize: POROL; details: # = 1, g a.c./ha: PYR 300, MES 100, PYR + MES 300 + 90
Method: as §1, §2

[15] = g a.c./ha: MES 50, PYR + SMO 300 + 800
[16] = g a.c./ha: MES 80, PYR + MES 300 + 50

CS(=O)(=O)c1ccc(C(=O)C2C(=O)CCCC2=O)c([N+](=O)[O-])c1 [MES, 2-(4-methylsulfonyl-2-nitrobenzoyl) cyclohexane-1,3-dione] gave an MES h.e. ([1]; POLAV 14-20 DAA 45 g a.c./ha) of 61%, an MES h.e. ([1]; POLAV 14-20 DAA 90 g a.c./ha) of 76% and an MES h.e. ([1]; POLAV 24-31 DAA 90 g a.c./ha) of 58%. The “herbicidal effect (h.e.)” value [2, 15] was 70%, the “herbicidal effect (h.e.)” value [2, 16] was 73% and the “herbicidal effect (h.e.)” value [3] was 98%. The “herbicidal effect (h.e.)” value [4, 15] was 15%, the “herbicidal effect (h.e.)” value [4, 16] was 15% and the “herbicidal effect (h.e.)” value ([5]; 7-14 DAA, # = 4) was 91%. The “herbicidal effect (h.e.)” value ([5]; 31-48 DAA, # = 5) was 93%, the MES h.e. ([5]; VERPE 14-20 DAA 45 g a.c./ha) was 20% and the MES h.e. ([5]; VERPE 14-20 DAA 90 g a.c./ha) was 75%. The MES h.e. ([5]; VERPE 14-20 DAA 135 g a.c./ha) was 70%, the MES h.e. ([5]; VERPE 24-31 DAA 45 g a.c./ha) was 10% and the MES h.e. ([5]; VERPE 24-31 DAA 90 g a.c./ha) was 55%. For the same compound, the MES h.e. ([5]; VERPE 24-31 DAA 135 g a.c./ha) was 60%, the MES h.e. ([6]; MATCH 14-20 DAA 45 g a.c./ha) was 53% and the MES h.e. ([6]; MATCH 14-20 DAA 90 g a.c./ha) was 72%. For the same compound, the MES h.e. ([6]; MATCH 14-20 DAA 135 g a.c./ha) was 81%, the MES h.e. ([6]; MATCH 24-31 DAA 45 g a.c./ha) was 43% and the MES h.e. ([6]; MATCH 24-31 DAA 90 g a.c./ha) was 77%. For the same compound, the MES h.e. ([6]; MATCH 24-31 DAA 135 g a.c./ha) was 93%, the “herbicidal effect (h.e.)” value [7] was 88% and the MES h.e. ([8]; LAMPU 14-20 DAA 45 g a.c./ha) was 93%. The MES h.e. ([8]; LAMPU 14-20 DAA 90 g a.c./ha) was 98%, the MES h.e. ([8]; LAMPU 14-20 DAA 135 g a.c./ha) was 99% and the MES h.e. ([8]; LAMPU 24-31 DAA 45 g a.c./ha) was 89%. For the same compound, the MES h.e. ([8]; LAMPU 24-31 DAA 90 g a.c./ha) was 95%, the “herbicidal effect (h.e.)” value ([9]; 7-14 DAA) was 90% and the “herbicidal effect (h.e.)” value ([9]; 18-28 DAA) was 54%. For the same compound, the “herbicidal effect (h.e.)” value ([9]; 31-48 DAA) was 41%, the “herbicidal effect (h.e.)” value [10] was 91% and the “herbicidal effect (h.e.)” value ([11]; 7-14 DAA) was 77%. For the same compound, the “herbicidal effect (h.e.)” value ([11]; 18-28 DAA) was 78%, the “herbicidal effect (h.e.)” value ([11]; 31-48 DAA) was 80% and the MES h.e. ([11]; MATIN 24-31 DAA 45 g a.c./ha) was 80%. For the same compound, the MES h.e. ([12]; SETVI 14-20 DAA 45 g a.c./ha) was 83%, the MES h.e. ([12]; SETVI 14-20 DAA 90 g a.c./ha) was 92% and the MES h.e. ([12]; SETVI 14-20 DAA 135 g a.c./ha) was 95%. It also gave an MES h.e. ([12]; SETVI 24-31 DAA 45 g a.c./ha) of 72%, an MES h.e. ([12]; SETVI 24-31 DAA 90 g a.c./ha) of 92% and an MES h.e. ([12]; SETVI 24-31 DAA 135 g a.c./ha) of 95%. For the same compound, the “herbicidal effect (h.e.)” value [13, 15] was 33%, the “herbicidal effect (h.e.)” value [13, 16] was 57% and the “herbicidal effect (h.e.)” value ([14]; 7-14 DAA) was 50%. The “herbicidal effect (h.e.)” value ([14]; 18-28 DAA) was 5%.
